This is an account of results in patent US4702863A, “Indoaniline and indophenol compounds, a process for their preparation, dyeing compositions containing them and a hair-dyeing process” (L'Oreal, priority 1983, dated 1987).

Data set [1] has as its system Salmonella Typhimurium. Briefly: Ames test on Salmonella Typhimurium, with or without an S9 mix activated with Arochlor. Format: cell-based. As to conditions: strains TA 100, TA 98 and TA 1538; with or without an S9 mix (Arochlor activation). From the text: Compounds of formula (I), in hair-dyeing, are substantially innocuous.
For orientation: In the Ames test, an excess of revertant colonies over the control signals mutagenicity.

In data set [2] the test system is Salmonella Typhimurium. Particulars: Selects-Proton Magnetic Resonance, page 1, volume 18, 1981, number 95: 75096 f; cited from earlier work.

As for `COC1=CC(=Nc2ccc(N)cc2)C(N)=CC1=O` [[(4'-amino)phenyl]-2-amino-5-methoxy-1,4-benzoquinoneimine], the “mutagenicity in the Ames test” value in the data set with Salmonella Typhimurium [1] is listed as “highly mutagenic”.

With `COC1=CC(=Nc2ccc(N)c(C)c2)C(N)=CC1=O` [[(4'-amino-3'-methyl)phenyl]-2-amino-5-methoxy-1,4-benzoquinoneimine], in the data set with Salmonella Typhimurium [1], the “mutagenicity in the Ames test” value was “highly mutagenic”. Moreover, in the data set with Salmonella Typhimurium [2], the “mutagenic action disclosed in Chemical Abstracts” value is on record as “highly mutagenic”.
